# Reference: patent publication US9149038B2, “4-amino-6-(heterocyclic)picolinates and 6-amino-2-(heterocyclic)pyrimidine-4-carboxylates and their use as herbicides” (Dow AgroSciences LLC, priority 2013, dated 2015)
# Where two headings read alike, the source gives them in different places.
# Assays:
# [1] = test system: Key Grass and Sedge Weeds as well as Grass Crops; assay: Post-Emergent Test II: postemergent herbicidal activity, visual rating after 14 d (Table 8); type: in vivo; settings: post-emergence, 336 h; for pest or weed control at 35 g/ha: 35 g ai/ha; for pest or weed control at 70 g/ha: 70 g ai/ha; for pest or weed control at 140 g/ha: 140 g ai/ha
# How it was run: (§1)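 Track-sprayed young seedlings (first/second true leaf) at 187 L/ha across a 2-fold rate series from the high rate down to 1/16×. Kept in greenhouse at 23-29° C day, subirrigated. Injury rated by eye after 14 d, 0 = no injury, 100 = complete kill.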
# [2] = test system: Key Broadleaf Weed and Crop Species; assay: Post-Emergent Test II: postemergent herbicidal activity, visual rating after 14 d (Table 7); type: in vivo; settings: post-emergence, 336 h; for pest or weed control at 35 g/ha: 35 g ai/ha; for pest or weed control at 70 g/ha: 70 g ai/ha; for pest or weed control at 140 g/ha: 140 g ai/ha
# How it was run: as §1
# [3] = barnyardgrass (Echinochloa crus-galli), read-out: Visual Growth Reduction (%) 14 Days After Application ECHCG
# [4] = giant foxtail (Setaria faberi), read-out: Visual Growth Reduction (%) 14 Days After Application SETFA
# [5] = maize, corn (Zea mays), read-out: Visual Growth Reduction (%) 14 Days After Application ZEAMX
# [6] = rice (Oryza sativa), read-out: Visual Growth Reduction (%) 14 Days After Application ORYSA
# [7] = wheat, spring (Triticum aestivum), read-out: Visual Growth Reduction (%) 14 Days After Application TRZAS
# [8] = yellow nutsedge (Cyperus esculentus), read-out: Visual Growth Reduction (%) 14 Days After Application CYPES
# [9] = lambsquarters (Chenopodium album), read-out: Visual Growth Reduction (%) 14 Days After Application CHEAL
# [10] = oilseed rape, canola (Brassica napus), read-out: Visual Growth Reduction (%) 14 Days After Application BRSNN
# [11] = redroot pigweed (Amaranthus retroflexus), read-out: Visual Growth Reduction (%) 14 Days After Application AMARE
# [12] = sunflower (Helianthus annuus), read-out: Visual Growth Reduction (%) 14 Days After Application HELAN
# [13] = velvetleaf (Abutilon theophrasti), read-out: Visual Growth Reduction (%) 14 Days After Application ABUTH
# [14] = wild poinsettia (Euphorbia heterophylla), read-out: Visual Growth Reduction (%) 14 Days After Application EPHHL
Structure (SMILES),"pest or weed control at 35 g/ha [1, 3] [%]","pest or weed control at 70 g/ha [1, 3] [%]","pest or weed control at 140 g/ha [1, 3] [%]","pest or weed control at 35 g/ha [1, 4] [%]","pest or weed control at 70 g/ha [1, 4] [%]","pest or weed control at 140 g/ha [1, 4] [%]","pest or weed control at 35 g/ha [1, 5] [%]","pest or weed control at 70 g/ha [1, 5] [%]","pest or weed control at 140 g/ha [1, 5] [%]","pest or weed control at 35 g/ha [1, 6] [%]","pest or weed control at 70 g/ha [1, 6] [%]","pest or weed control at 140 g/ha [1, 6] [%]","pest or weed control at 35 g/ha [1, 7] [%]","pest or weed control at 70 g/ha [1, 7] [%]","pest or weed control at 140 g/ha [1, 7] [%]","pest or weed control at 35 g/ha [1, 8] [%]","pest or weed control at 70 g/ha [1, 8] [%]","pest or weed control at 140 g/ha [1, 8] [%]","pest or weed control at 35 g/ha [2, 9] [%]","pest or weed control at 70 g/ha [2, 9] [%]",other results
CC1(C)Oc2ccc(-c3nc(C(=O)O)c(Cl)c(N)c3F)cc2O1 [Compound 19],85 to 94,85 to 94,95 to 100,0 to 29,0 to 29,0 to 29,60 to 74,60 to 74,60 to 74,0 to 29,0 to 29,0 to 29,0 to 29,0 to 29,0 to 29,95 to 100,95 to 100,95 to 100,0 to 29,0 to 29,"pest or weed control at 140 g/ha [2, 9]: 0 to 29%; pest or weed control at 35 g/ha [2, 10]: 0 to 29%; pest or weed control at 70 g/ha [2, 10]: 45 to 59%; pest or weed control at 140 g/ha [2, 10]: 60 to 74%; pest or weed control at 35 g/ha [2, 11]: 85 to 94%; pest or weed control at 70 g/ha [2, 11]: 85 to 94%; pest or weed control at 140 g/ha [2, 11]: 85 to 94%; pest or weed control at 35 g/ha [2, 12]: 0 to 29%; pest or weed control at 70 g/ha [2, 12]: 0 to 29%; pest or weed control at 140 g/ha [2, 12]: 30 to 44%; pest or weed control at 35 g/ha [2, 13]: 0 to 29%; pest or weed control at 70 g/ha [2, 13]: 60 to 74%; pest or weed control at 140 g/ha [2, 13]: 60 to 74%; pest or weed control at 35 g/ha [2, 14]: 95 to 100%; pest or weed control at 70 g/ha [2, 14]: 95 to 100%; pest or weed control at 140 g/ha [2, 14]: 95 to 100%"
Nc1c(F)c(-c2ccc3c(c2F)OC(F)(F)O3)nc(C(=O)O)c1Cl [Compound 11],85 to 94,95 to 100,95 to 100,75 to 84,85 to 94,95 to 100,60 to 74,60 to 74,75 to 84,0 to 29,0 to 29,30 to 44,60 to 74,60 to 74,75 to 84,0 to 29,95 to 100,95 to 100,95 to 100,95 to 100,"pest or weed control at 140 g/ha [2, 9]: 95 to 100%; pest or weed control at 35 g/ha [2, 10]: 85 to 94%; pest or weed control at 70 g/ha [2, 10]: 85 to 94%; pest or weed control at 140 g/ha [2, 10]: 85 to 94%; pest or weed control at 35 g/ha [2, 12]: 95 to 100%; pest or weed control at 70 g/ha [2, 12]: 95 to 100%; pest or weed control at 140 g/ha [2, 12]: 95 to 100%; pest or weed control at 35 g/ha [2, 13]: 85 to 94%; pest or weed control at 70 g/ha [2, 13]: 85 to 94%; pest or weed control at 140 g/ha [2, 13]: 95 to 100%; pest or weed control at 35 g/ha [2, 14]: 95 to 100%; pest or weed control at 70 g/ha [2, 14]: 95 to 100%; pest or weed control at 140 g/ha [2, 14]: 95 to 100%"
